Experimental data: US11464770B2, “Anticancer pharmaceutical composition” (NATIONAL CANCER CENTER, priority 2016, dated 2022)
Like-named read-outs stand apart in the source and are kept apart here.

Tests used:
[1] = system: blood cancer cell lines (e.g. HL-60, Jurkat, Raji, Ramos, Daudi, MOLT-4); assay: Cell based assay, cell viability (CellTiter-Glo), blood cancer cell lines; conditions: Homo sapiens
Description: (§1) Commercially available bladder cancer, prostate cancer, lung cancer, breast cancer, blood cancer, pancreatic cancer, colorectal cancer, brain cancer, neuroblastoma, melanoma, liver cancer, cervical carcinoma, ovarian cancer, renal cancer, and papilloma cell lines were each treated with trypsin-EDTA and cultured, followed by being seeded in each well of a 96 well plate. After 24 hours of treatment at constant temperature, the respective cells were treated with the candidate compound so that a final concentration became 0 to 2 μM. The treated cells were additionally cultured for 72 hours, and cell viability was measured by using an ATP detection method (CellTiter-Glo® Luminescent Cell Viability Assay, Promega).

[2] = system: prostate cancer cell lines (e.g. DU145/TXR); assay: Cell based assay, cell viability (CellTiter-Glo), prostate cancer cell lines; conditions: Homo sapiens, 72 hours treatment, final concentration 0 to 2 μM
Description: as §1

brain cancer cell lines = assay: Cell based assay, cell viability (CellTiter-Glo), brain cancer cell lines; conditions: Homo sapiens
Description: as §1, with “After 24 hours of treatment at constant temperature, the respective cells were treated with the candidate compound so that a final concentration became 0 to 2 μM.” left out

[3] = system: RT4: human urinary bladder transitional cell papilloma; assay: Cell based assay, cytotoxicity in RT4 papilloma cells (selectivity); conditions: Homo sapiens, RT-4; RT4 cells
Description: as §1, with “After 24 hours of treatment at constant temperature, the respective cells were treated with the candidate compound so that a final concentration became 0 to 2 μM.” left out

[4] = MV4-11, blood cancer cell line MV-4-11, 72 hours, read-out: IC50, MV-4-11
[5] = blood cancer cell line Daudi, 72 hours, read-out: IC50, Daudi
[6] = blood cancer cell line HL-60, 72 hours, read-out: IC50, HL-60
[7] = blood cancer cell line Jurkat, 72 hours, read-out: IC50, Jurkat
[8] = blood cancer cell line MOLT-4, 72 hours, read-out: IC50, MOLT-4
[9] = blood cancer cell line Raji, 72 hours, read-out: IC50, Raji
[10] = blood cancer cell line Ramos (RA 1), 72 hours, read-out: IC50, Ramos (RA 1)
[11] = blood cancer cell line U-937, 72 hours, read-out: IC50, U-937
[12] = CWR22 cells, read-out: IC50, prostate cancer cell line CWR22
[13] = DU-145, DU145/TXR cells, read-out: IC50, prostate cancer cell line DU145/TXR
[14] = DU-145, DU145 cells, read-out: IC50, prostate cancer cell line DU145
[15] = LNcap cells, read-out: IC50, prostate cancer cell line LNcap
[16] = U138-MG, U-138 MG cell line, read-out: IC50, Brain cancer cell line U-138 MG
[17] = T98G cell line, read-out: IC50, Brain cancer cell line T98G
[18] = U-251 MG cell line, read-out: IC50, Brain cancer cell line U-251 MG
[19] = PC-3 cells, read-out: IC50, prostate cancer cell line PC-3

Structure (SMILES)	IC50 [1, 4] [nM]	IC50 [1, 5] [nM]	IC50 [1, 6] [nM]	IC50 [1, 7] [nM]	IC50 [1, 8] [nM]	IC50 [1, 9] [nM]	IC50 [1, 10] [nM]	IC50 [1, 11] [nM]	IC50 [2, 12] [nM]	IC50 [2, 13] [nM]	IC50 [2, 14] [nM]	IC50 [2, 15] [nM]	IC50 (brain cancer cell lines; [16]) [nM]	IC50 (brain cancer cell lines; [17]) [nM]	IC50 (brain cancer cell lines; [18]) [nM]	IC50 [2, 19] [nM]	IC50 [3] [nM]
CC(=O)c1c([S+]([O-])Cc2cccc(I)c2)[nH]c2c(Br)ccc(Cl)c2c1=O (centres unmarked) [Compound 48, 3-acetyl-8-bromo-5-chloro-2-((3-iodobenzyl)sulfinyl)quinolin-4(1H)-one]	> 2000	> 2000	> 2000	> 2000	> 2000	> 2000	> 2000	> 2000	> 2000	1570	> 2000	> 2000	> 2000	> 10000	> 2000	–	> 10000
CC(=O)c1c(SCc2cccc(F)c2)[nH]c2c(Br)ccc(Cl)c2c1=O [Compound 49, 3-acetyl-8-bromo-5-chloro-2-((3-fluorobenzyl)thio)quinolin-4(1H)-one]	> 2000	> 2000	> 2000	> 2000	> 2000	> 2000	> 2000	> 2000	> 2000	> 2000	> 2000	> 2000	> 10000	> 10000	> 2000	> 2000	> 10000
CC(=O)c1c([S+]([O-])Cc2ccccc2)nc2c(Br)ccc(Cl)c2c1O (centres unmarked) [Compound 53, 1-(2-(benzylsulfinyl)-8-bromo-5-chloro-4-hydroxyquinolin-3-yl)ethan-1-one]	> 2000	> 2000	> 2000	> 2000	> 2000	> 2000	> 2000	> 2000	> 2000	> 2000	> 2000	> 2000	> 10000	> 10000	> 2000	–	> 10000

The next lines start with results.

IC50 [1, 4] [nM]	IC50 [1, 5] [nM]	IC50 [1, 6] [nM]	IC50 [1, 7] [nM]	IC50 [1, 8] [nM]	IC50 [1, 9] [nM]	IC50 [1, 10] [nM]	IC50 [1, 11] [nM]	IC50 [2, 12] [nM]	IC50 [2, 13] [nM]	IC50 [2, 14] [nM]	IC50 [2, 15] [nM]	IC50 (brain cancer cell lines; [16]) [nM]	IC50 (brain cancer cell lines; [17]) [nM]	IC50 (brain cancer cell lines; [18]) [nM]	IC50 [2, 19] [nM]	Structure (SMILES)	IC50 [3] [nM]
> 2000	> 2000	> 2000	> 2000	> 2000	> 2000	> 2000	> 2000	> 2000	> 2000	> 2000	> 2000	> 10000	> 10000	> 2000	> 2000	CC(=O)c1c(SCc2ccccc2)nc2c(Br)ccc(Cl)c2c1O [Compound 52, 1-(2-(benzylthio)-8-bromo-5-chloro-4-hydroxyquinolin-3-yl)ethan-1-one]	> 10000
> 2000	> 2000	> 2000	> 2000	> 2000	> 2000	> 2000	> 2000	> 2000	> 2000	> 2000	> 2000	> 10000	> 10000	> 2000	> 2000	CC(=O)c1c(S(=O)(=O)Cc2ccccc2)nc2c(Br)ccc(Cl)c2c1O [Compound 54, 1-(2-(benzylsulfonyl)-8-bromo-5-chloro-4-hydroxyquinolin-3-yl)ethan-1-one]	> 10000
970	1980	870	990	1240	940	1250	730	1200	1210	1230	1440	1460	> 10000	840	1300	CC(=O)c1c([S+]([O-])Cc2ccccc2C#N)[nH]c2c(Br)ccc(Cl)c2c1=O (centres unmarked) [Compound 58, 2-(((3-acetyl-8-bromo-5-chloro-4-oxo-1,4-dihydroquinolin-2-yl)sulfinyl)methyl)benzonitrile]	> 10000
> 2000	> 2000	> 2000	> 2000	> 2000	> 2000	> 2000	> 2000	> 2000	> 2000	> 2000	> 2000	> 10000	> 10000	> 2000	> 2000	COCSc1[nH]c2c(Br)ccc(Cl)c2c(=O)c1C(C)=O [Compound 61, 3-acetyl-8-bromo-5-chloro-2-((methoxymethyl)thio)quinolin-4(1H)-one]	> 10000
> 2000	> 2000	> 2000	> 2000	> 2000	> 2000	> 2000	> 2000	> 2000	> 2000	> 2000	> 2000	> 10000	> 10000	> 2000	> 2000	CC(=O)c1c(S)[nH]c2c(Br)ccc(Cl)c2c1=O [Compound 62, 3-acetyl-8-bromo-5-chloro-2-mercaptoquinolin-4(1H)-one]	> 10000
